In article PMC10193983 (Proceedings of the National Academy of Sciences of the …, 2023):

Biological target: MnMT4
Assay: biolayer interferometry
Type: binding, Mycolicibacterium neoaurum

Row | SMILES | Kd [µM]
1 | Nc1ncnc2c1ncn2[C@@H]1O[C@H](CSCC[C@H](N)C(=O)O)[C@@H](O)[C@H]1O [SAH] | 0.0291
2 | C[S+](CC[C@H](N)C(=O)[O-])C[C@H]1O[C@@H](n2cnc3c(N)ncnc32)[C@H](O)[C@@H]1O (some centres unmarked) [SAM] | 18.4
